Source: patent US8580809B2, “Filamin A-binding anti-inflammatory analgesic” (Pain Therapeutics, Inc., priority 2009, dated 2013)

Target: T1, mu opiate receptor (MOR) (Rattus norvegicus, UniProt P33535)
T1 construct: from tissue; host or cells: rat striatal membrane preparation
Assay: MOR agonist activity using [35S]GTPγS binding assay in striatal membranes
Assay type: biochemical
Conditions: for MOR agonist activity, [35S]GTPγS binding to Gαo, FLNA-binding compound as agonist 0.1 μM: 0.1 μM compound; for MOR agonist activity, [35S]GTPγS binding to Gαo, FLNA-binding compound as agonist 0.1 μM / MOR agonist activity, [35S]GTPγS binding to Gαo, FLNA-binding compound as agonist 1 μM: striatal membranes; for MOR agonist activity, [35S]GTPγS binding to Gαo, 1 μM + BFNA: 1 μM compound + 1 μM β-funaltrexamine; for MOR agonist activity, [35S]GTPγS binding to Gαo, FLNA-binding compound as agonist 1 μM: 1 μM compound
Experimental: To assess the mu opiate receptor (MOR) agonist activity of positive compounds from the FLNA screening, compounds were tested in a [^35S]GTPγS binding assay using striatal membranes.
Striatal tissue was homogenized in 10 volumes of ice cold 25 mM HEPES buffer, pH 7.4, which contained 1 mM EGTA, 100 mM sucrose, 50 μg/ml leupeptin, 0.04 mM PMSF, 2 μg/ml soybean trypsin inhibitor and 0.2% 2-mercaptoethanol. The homogenates were centrifuged at 800×g for 5 minutes and the supernatants were centrifuged at 49,000×g for 20 minutes.
The resultant striatal membrane preparation (200 μg) was admixed and maintained (incubated) at 30° C. for 5 minutes in reaction buffer as above that additionally contained 1 mM MgCl2 and 0.5 nM [^35S]GTPγS (0.1 μCi/assay, PerkinElmer Life and Analytical Sciences) in a total volume of 250 μl and continued for 5 minutes in the absence or presence of 0.1-10 μM of an assayed compound of interest. The reaction was terminated by dilution with 750 μl of ice-cold reaction buffer that contained 20 mM MgCl2 and 1 mM EGTA and immediate centrifugation at 16,000×g for 5 minutes.
The resulting pellet was solubilized by sonicating for 10 seconds in 0.5 ml of immunoprecipitation buffer containing 0.5% digitonin, 0.2% sodium cholate and 0.5% NP-40. Normal rabbit serum (1 μl) was added to 1 ml of lysate and incubated at 25° C. for 30 minutes. Nonspecific immune complexes were removed by incubation with 25 μl of protein A/G-conjugated agarose beads at 25° C. for 30 minutes followed by centrifugation at 5,000×g at 4° C. for 5 minutes. The supernatant was divided and separately incubated at 25° C. for 30 minutes with antibodies raised against Gαo proteins (1:1,000 dilutions).
The immunocomplexes so formed were collected by incubation at 25° C. for 30 minutes with 40 μl of agarose-conjugated protein A/G beads and centrifugation at 5,000×g at 4° C. for 5 minutes. The pellet was washed and suspended in buffer containing 50 mM Tris-HCl, pH 8.0, and 1% NP-40. The radioactivity in the suspension was determined by liquid scintillation spectrometry. […] DAMGO (H-Tyr-D-Ala-Gly-N-MePhe-Gly-OH; 1 or 10 μM) was used as a positive control.

T1 sequence (P33535 whole entry): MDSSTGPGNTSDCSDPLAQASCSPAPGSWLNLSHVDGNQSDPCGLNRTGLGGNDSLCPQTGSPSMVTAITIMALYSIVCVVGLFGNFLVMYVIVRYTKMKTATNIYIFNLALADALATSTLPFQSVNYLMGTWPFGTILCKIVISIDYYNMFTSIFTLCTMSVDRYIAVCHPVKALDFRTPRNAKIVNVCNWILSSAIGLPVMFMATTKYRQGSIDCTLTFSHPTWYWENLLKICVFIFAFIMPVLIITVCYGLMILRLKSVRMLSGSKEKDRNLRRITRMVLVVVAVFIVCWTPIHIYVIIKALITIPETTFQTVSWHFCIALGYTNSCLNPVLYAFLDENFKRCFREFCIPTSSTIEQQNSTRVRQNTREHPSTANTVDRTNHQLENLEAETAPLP

SMILES	MOR agonist activity, [35S]GTPγS binding to Gαo, FLNA-binding compound as agonist 0.1 μM	MOR agonist activity, [35S]GTPγS binding to Gαo, 1 μM + BFNA	MOR agonist activity, [35S]GTPγS binding to Gαo, FLNA-binding compound as agonist 1 μM
COc1ccc(S(=O)(=O)N2CCC3(CC2)OCCN3S(=O)(=O)c2ccc(OC)c(OC)c2)cc1OC [Compound C0049]	106.6%	81.0%	210.0%
CC(O)c1ccc(S(=O)(=O)N2CCC3(CC2)OCCN3S(=O)(=O)c2ccc(C(C)O)cc2)cc1 (stereo not drawn) [Compound C0051]	94.4%	55.9%	170.4%
CC(=O)c1ccc(C(=O)N2CCOC23CCN(S(=O)(=O)c2ccc(C(C)=O)cc2)CC3)cc1 [Compound C0053]	104.0%	93.1%	157.2%
CC(=O)c1ccc(C(=O)N2CCC3(CC2)OCCN3C(=O)c2ccc(C(C)=O)cc2)cc1 [Compound C0054]	68.2%	43.5%	127.0%
COc1cc(S(=O)(=O)N2CCC3(CC2)OCCN3S(=O)(=O)c2cc(OC)c(OC)c(OC)c2)cc(OC)c1OC [Compound C0062]	127.8%	59.8%	310.5%
CC(=O)c1ccc(S(=O)(=O)N2CCC3(CC2)NC(=O)CN3S(=O)(=O)c2ccc(C(C)=O)cc2)cc1 [Compound C0064]	213.8%	38.1%	349.6%
CC(=O)c1ccc(S(=O)(=O)N2CCC3(CC2)OC(CN(C)C)CN3S(=O)(=O)c2ccc(C(C)=O)cc2)cc1 (stereo not drawn) [Compound C0065]	198.3%	47.7%	279.5%
O=S(=O)(c1ccc(Cl)cc1)N1CCC2(CC1)OCCN2S(=O)(=O)c1ccc(Cl)cc1 [Compound C0067]	142.7%	33.5%	179.0%
O=S(=O)(c1ccc(Br)cc1C(F)(F)F)N1CCC2(CC1)OCCN2S(=O)(=O)c1ccc(Br)cc1C(F)(F)F [Compound C0068]	107.2%	165.9%	263.1%
O=S(=O)(c1ccc(Br)cc1Br)N1CCC2(CC1)OCCN2S(=O)(=O)c1ccc(Br)cc1Br [Compound C0070]	165.6%	114.2%	210.8%
O=S(=O)(c1ccc(C(F)(F)F)cc1Br)N1CCC2(CC1)OCCN2S(=O)(=O)c1ccc(C(F)(F)F)cc1Br [Compound C0071]	276.3%	177.1%	355.3%
O=S(=O)(c1ccc(F)c(F)c1)N1CCC2(CC1)OCCN2S(=O)(=O)c1ccc(F)c(F)c1 [Compound C0072]	172.7%	67.1%	259.1%
O=S(=O)(c1ccc(Br)c(C(F)(F)F)c1)N1CCC2(CC1)OCCN2S(=O)(=O)c1ccc(Br)c(C(F)(F)F)c1 [Compound C0077]	192.7%	136.7%	265.4%
O=S(=O)(c1ccc(Br)cc1F)N1CCC2(CC1)OCCN2S(=O)(=O)c1ccc(Br)cc1F [Compound C0078]	138.1%	170.7%	236.6%
CC(=O)c1ccc(S(=O)(=O)N2CCC3(CC2)OCC(CCCCN(C)C)N3S(=O)(=O)c2ccc(C(C)=O)cc2)cc1 (stereo not drawn) [Compound C0080M]	187.9%	167.1%	205.4%
CC(=O)c1ccc(S(=O)(=O)N2CCC3(CC2)NC(=O)C(Cc2cnc[nH]2)N3S(=O)(=O)c2ccc(C(C)=O)cc2)cc1 (stereo not drawn) [Compound C0084M]	163.1%	133.2%	255.5%
CC(=O)c1ccc(S(=O)(=O)N2CCC3(CC2)NC(=O)CN3Cc2ccccc2)cc1 [Compound C0085M]	211.6%	43.7%	246.2%
O=C1CN(Cc2ccccc2)C2(CCN(S(=O)(=O)c3cc(Cl)cc(Cl)c3O)CC2)N1 [Compound C0138M]	126.9%	51.5%	183.9%
O=S(=O)(c1ccc2ccccc2c1)N1CCC2(CC1)OCCN2S(=O)(=O)c1ccc2ccccc2c1 [Compound C0140M]	126.1%	83.0%	215.4%
O=S(=O)(c1cccs1)N1CCC2(CC1)OCCN2S(=O)(=O)c1cccs1 [Compound C0141M]	161.5%	47.9%	213.9%
O=S(=O)(c1cccc2cccnc12)N1CCC2(CC1)OCCN2S(=O)(=O)c1cccc2cccnc12 [Compound C0143M]	81.0%	86.5%	193.3%
COc1ccc(S(=O)(=O)N2CCC3(OCCN3S(=O)(=O)c3ccc(OC)cc3)C3CCCCC32)cc1 (stereo not drawn) [Compound C0144M]	186.3%	125.9%	295.9%
COc1ccc(S(=O)(=O)N2CCCC3(C2)OCCN3S(=O)(=O)c2ccc(OC)cc2)cc1 (stereo not drawn) [Compound C0145M]	193.0%	87.0%	289.2%
O=S(=O)(c1ccc(Oc2ccccc2)cc1)N1CCC2(CC1)OCCN2S(=O)(=O)c1ccc(Oc2ccccc2)cc1 [Compound C0149M]	209.8%	93.4%	406.7%
O=S(=O)(c1csc2ccccc12)N1CCC2(CC1)OCCN2S(=O)(=O)c1csc2ccccc12 [Compound C0150M]	167.1%	158.1%	423.1%
COc1ccc(NC(=O)N2CCC3(CC2)OCCN3C(=O)Nc2ccc(OC)cc2)cc1 [Compound C0151M]	346.8%	212.8%	397.6%
C[C@@H](NC(=O)[C@@H](N)Cc1ccc(O)cc1)C(=O)NCC(=O)N(C)[C@@H](Cc1ccccc1)C(=O)NCCO [DAMGO, reference compound]	168.5%	53.2%	266.1%
